Holding throughout (assay): NCI tumour cell line growth inhibition, 48 h
In assay [1] the test system is OVCAR-4.
The subject of assay [2] is UO-31.
In assay [3] the test system is SNB-75.
Assay [4] relates to HCT-116.
In assay [5] the test system is COLO 205.
Assay [6] deals with LOX IMVI.
The test system of assay [7] is SK-MEL-28.
In assay [8] the test system is IGROV-1.
In assay [9] the test system is HCT-15.
The subject of assay [10] is SK-MEL-5.
Assay [11] has as its system TK-10.
For assay [12], the system named is DLD-1.
In assay [13] the test system is A549.
Assay [14] has as its system Malme-3M.
Assay [15] has as its system OVCAR-3.
For assay [16], the system named is HOP-92.
In assay [17] the test system is HOP-62.
Assay [18] deals with NCI-H460.
Assay [19] has as its system CCRF-CEM.

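96-well plates; 48 h exposure; 5 concentrations. Endpoints by linear interpolation between flanking doses. Not reached: highest tested concentration assigned. At the GI50, growth is halved.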 Active and inactive are the calls of the source. Cut-off read from the data, not from the text of the source: active = GI50 up to about 1.1 µM and inactive = higher.

For the molecule `N#C/C(=C1\OC(=N)C(c2ccc(Cl)cc2Cl)C1=O)c1ccc(Cl)cc1Cl` (stereo not given), the GI50 was > 100 µM (inactive) in assay [1]; 56.6 µM (inactive) in assay [2]; 58.9 µM (inactive) in assay [3]; > 100 µM (inactive) in [4]; > 100 µM (inactive) in assay [5]; > 100 µM (inactive) in assay [6]. Further, the GI50 was > 100 µM (inactive) in assay [7]; > 100 µM (inactive) in assay [8]; > 100 µM in assay [9]; > 100 µM (inactive) in assay [10]; > 100 µM (inactive) in [11]; > 100 µM (inactive) in [12]. For the same molecule, the GI50 in assay [13] is > 100 µM (inactive); in [14], > 100 µM (inactive); in assay [15], > 100 µM (inactive); in [16] it was 80.5 µM (inactive).

`Cn1cnc([N+](=O)[O-])c1Sc1nc2cc(Cl)c(F)cc2[nH]1`: the GI50 in [17] is 74.5 µM (inactive); in assay [1], 4.34 µM (inactive); in assay [2] it was 11.3 µM (inactive); in assay [3], 13.8 µM (inactive); in assay [4], 6.9 µM (inactive); in assay [18] it was 10.3 µM (inactive). Besides, the GI50 in assay [5] was 6.43 µM (inactive); in assay [6], 16.1 µM (inactive); in assay [7], 13.5 µM (inactive); in [8] it was 7.66 µM (inactive); in assay [9], 4.37 µM; in assay [10], 11.7 µM (inactive). The GI50 in assay [11] is 14.5 µM (inactive); in assay [12], 7.67 µM (inactive); in [13] it was 15.3 µM (inactive); in [14], 13.7 µM (inactive); in assay [15], > 10 µM (inactive); in [16], 13.8 µM (inactive).

`c1ccc(CN2CCCCC(Sc3ccccc3)CC2)cc1` (stereo not given): the GI50 in assay [17] is 64.4 µM (inactive); in assay [1], 46.7 µM (inactive); in assay [2], 15.3 µM (inactive); in [3] it was 30.5 µM (inactive); in assay [4] it was 27.2 µM (inactive); in assay [18], 20.2 µM (inactive). Besides, the GI50 in [5] was 13.4 µM (inactive); in assay [6], 16.5 µM (inactive); in [7], 45.3 µM (inactive); in [19], 19.2 µM (inactive); in assay [8], 91.6 µM (inactive); in assay [9] it was 17.6 µM. Besides, the GI50 was 18.7 µM (inactive) in assay [10]; 58.7 µM (inactive) in assay [11]; 20.8 µM (inactive) in [12]; 87.3 µM (inactive) in assay [13]; 19.1 µM (inactive) in [14]; 33.9 µM (inactive) in assay [15]. The GI50 in assay [16] was 28.5 µM (inactive).

In the case of `CC12CCC(=O)N1c1cccnc1N2` (stereo not given), the GI50 in assay [17], in assay [1], in [2], in assay [3], in assay [18] and in [5] was > 100 µM (inactive) throughout. Also, the GI50 in assay [6] was > 100 µM (inactive); in assay [7], > 100 µM (inactive); in assay [19], > 100 µM (inactive); in assay [8], > 100 µM (inactive); in assay [9] it was > 100 µM; in assay [10], > 100 µM (inactive). Besides, the GI50 in assay [11], in [12], in [13], in assay [14], in assay [15] and in assay [16] was > 100 µM (inactive) throughout.

`CCOC(=O)/C(=C/c1cccc(C#N)c1)N(CC)CC`: the GI50 in assay [17], in assay [1], in [2], in assay [3], in assay [4] and in [18] was > 100 µM (inactive) in each case. Further, the GI50 in assay [5] is > 100 µM (inactive); in assay [6], > 100 µM (inactive); in assay [7], > 100 µM (inactive); in assay [19], > 100 µM (inactive); in assay [8], > 100 µM (inactive); in assay [9], > 100 µM. Further, the GI50 in [10], in assay [11], in assay [12], in assay [13], in assay [14] and in assay [16] was > 100 µM (inactive) each time.

`Cc1c(C(=N)N)oc2ccccc12`: the GI50 in [17] was > 100 µM (inactive); in assay [1], > 100 µM (inactive); in [2], > 100 µM (inactive); in [3], 79.6 µM (inactive); in [4] it was > 100 µM (inactive); in [18], > 100 µM (inactive). Further, the GI50 in [5], in [6], in [7], in [19], in assay [8] and in assay [10] was > 100 µM (inactive) in each case. Also, the GI50 in assay [11], in assay [12], in assay [13], in assay [14], in assay [15] and in assay [16] was > 100 µM (inactive) throughout.

`COC1C(OC(=O)c2ccc(C)[nH]2)C(O)C(Oc2ccc3c(O)c(NC(=O)c4c[nH]c(C(=O)Nc5c(O)c6ccc(OC7OC(C)(C)C(OC)C(OC(=O)c8ccc(C)[nH]8)C7O)c(C)c6oc5=O)c4C)c(=O)oc3c2C)OC1(C)C` (stereo not given): the GI50 was 2.05 µM (inactive) in assay [1]; 1.45 µM (inactive) in assay [2]; 0.708 µM (active) in assay [3]; 1.88 µM (inactive) in assay [18]; 1.87 µM (inactive) in assay [5]; 2.77 µM (inactive) in assay [6]. Also, the GI50 in assay [7] is 0.475 µM (active); in assay [19] it was 2.34 µM (inactive); in assay [8], 1.3 µM (inactive); in assay [9] it was 1.88 µM; in assay [10] it was 2.61 µM (inactive); in assay [11], 4.86 µM (inactive). Moreover, the GI50 in assay [12] is 1.86 µM (inactive); in assay [13], 3.39 µM (inactive); in assay [14], 2.09 µM (inactive); in assay [15], 3.26 µM (inactive); in assay [16], 2.44 µM (inactive).

On to `c1cncc(C2c3[nH]c4ccccc4c3CCN2CCN2CCCCC2)c1` (stereo not given), for which the GI50 in assay [17] is > 100 µM (inactive); in [1], > 100 µM (inactive); in assay [2] it was 38.3 µM (inactive); in [3], 43.6 µM (inactive); in [4], > 100 µM (inactive); in assay [18] it was > 100 µM (inactive). For the same molecule, the GI50 in assay [6] was > 100 µM (inactive); in assay [7], 46.7 µM (inactive); in assay [19], 56.4 µM (inactive); in [8] it was > 100 µM (inactive); in assay [9], > 100 µM; in assay [10], > 100 µM (inactive). The GI50 is > 100 µM (inactive) in assay [11]; > 100 µM (inactive) in assay [12]; > 100 µM (inactive) in assay [13]; > 100 µM (inactive) in assay [15]; 30 µM (inactive) in [16].

On to `CN(C)CCNC(=O)c1ccc(Cl)c2c(Nc3ccc(S(N)(=O)=O)cc3)c3ccccc3nc12`, for which the GI50 in assay [17] was 8.45 µM (inactive); in assay [1], 1.93 µM (inactive); in [2], 2.38 µM (inactive); in assay [3] it was 1.33 µM (inactive); in assay [4] it was 0.29 µM (active); in assay [18] it was 0.706 µM (active). Further, the GI50 in assay [5] was 0.61 µM (active); in [6] it was 0.594 µM (active); in [7], 2.67 µM (inactive); in assay [8] it was 2.72 µM (inactive); in [9], 2.84 µM; in assay [10] it was 2.49 µM (inactive). Moreover, the GI50 in [11] was 2.95 µM (inactive); in [12] it was 1.31 µM (inactive); in assay [13], 2.64 µM (inactive); in [14], 3.46 µM (inactive); in assay [15], 2.42 µM (inactive); in assay [16] it was 1.43 µM (inactive).

For the molecule `CC(=O)O[C@H]1CCC2[C@@H]3CCC4c5nonc5CC[C@]4(C)C3CC[C@@]21C` (stereo not given in full), the GI50 in assay [17] was > 10 µM (inactive); in assay [1], > 10 µM (inactive); in [2] it was > 10 µM (inactive); in assay [3] it was 51.3 µM (inactive); in [4], > 10 µM (inactive); in [18] it was > 10 µM (inactive). In addition, the GI50 was > 10 µM (inactive) in assay [5]; > 10 µM (inactive) in assay [6]; > 10 µM (inactive) in [7]; > 10 µM (inactive) in assay [19]; > 10 µM (inactive) in assay [8]; > 10 µM in assay [9]. Also, the GI50 in assay [10], in assay [11], in [12], in [13], in assay [14] and in assay [16] was > 10 µM (inactive) in each case.

`N=C1NC2(O)C(=O)c3ccccc3C2(O)N1` (stereo not given): the GI50 in [17], in [1], in assay [3], in [4], in assay [18] and in assay [5] was > 100 µM (inactive) throughout. Further, the GI50 in [6] is > 100 µM (inactive); in assay [7], > 100 µM (inactive); in assay [19] it was > 100 µM (inactive); in [8] it was > 100 µM (inactive); in assay [9], > 100 µM; in assay [10] it was > 100 µM (inactive). The GI50 in assay [11], in assay [12], in assay [13], in assay [14], in [15] and in [16] was > 100 µM (inactive) each time.

Values taken from ChEMBL document CHEMBL1201862, “PubChem BioAssay data set” (2004).
